In the supplement of paper PMC10307832:

Key:
Experiment in all cases: relative viability (nuclei count vs DMSO), 5 days (fraction); higher = more cells survive
[1] = compound: CC1=C(C=C(C=C1)NC(=O)C2=CC(=CC=C2)C(C)(C)C#N)NC3=CC4=C(C=C3)N=CN(C4=O)C [AZ628] + COc1cccc2cc(-c3nc([C@H]4CC[C@H](C(=O)O)CC4)n4ncnc(N)c34)[nH]c12 [OSI-027] (partner 0.5 µM)
How it was run: (§1)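 Five library-drug doses in √10 steps were combined with a fixed anchor-drug dose, or a single drug was given alone, by pin tool to lung cancer cell lines in 1536-well plates the day after seeding. Nuclei were stained and counted after 5 days. Relative viability is the nuclei count in treated wells over that in vehicle wells, taken as the median of duplicate plates.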

[2] = compound: CC1=C(C=C(C=C1)NC(=O)C2=CC(=CC=C2)C(C)(C)C#N)NC3=CC4=C(C=C3)N=CN(C4=O)C [AZ628] + O=C(c1cc(Cc2n[nH]c(=O)c3ccccc23)ccc1F)N1CCN(C(=O)C2CC2)CC1 [Olaparib] (partner 8 µM)
How it was run: as §1

[3] = compound: C[As](C)SC[C@H](NC(=O)CC[C@H](N)C(=O)O)C(=O)NCC(=O)O [Darinaparsin] + O=C(c1cc(Cc2n[nH]c(=O)c3ccccc23)ccc1F)N1CCN(C(=O)C2CC2)CC1 [Olaparib] (partner 8 µM)
How it was run: as §1

[4] = compound: C[As](C)SC[C@H](NC(=O)CC[C@H](N)C(=O)O)C(=O)NCC(=O)O [Darinaparsin] + CS(=O)(=O)N1CCN(Cc2cc3nc(-c4cccc5[nH]ncc45)nc(N4CCOCC4)c3s2)CC1 [Pictilisib] (partner 1 µM)
How it was run: as §1

Row | Cell Line | relative viability ([1]; first compound 0.08 µM) | relative viability ([1]; first compound 0.253 µM) | relative viability ([1]; first compound 0.8 µM) | relative viability ([1]; first compound 2.53 µM) | relative viability ([1]; first compound 8 µM) | relative viability ([2]; first compound 0.08 µM) | relative viability ([2]; first compound 0.253 µM) | relative viability ([2]; first compound 0.8 µM) | relative viability ([2]; first compound 2.53 µM) | relative viability ([2]; first compound 8 µM) | relative viability ([3]; first compound 0.08 µM) | relative viability ([3]; first compound 0.8 µM) | relative viability ([3]; first compound 2.53 µM) | relative viability ([3]; first compound 8 µM) | relative viability ([4]; first compound 0.08 µM) | relative viability ([4]; first compound 0.8 µM) | relative viability ([4]; first compound 2.53 µM) | relative viability ([4]; first compound 8 µM)
1 | NCI-H1734 | 0.604 | 0.565 | 0.512 | 0.46 | 0.293 | 0.684 | 0.584 | 0.516 | 0.6 | 0.382 | 0.73 | 0.561 | 0.627 | 0.641 | 0.534 | 0.473 | 0.421 | 0.559
2 | NCI-H1755 | 0.683 | 0.74 | 0.781 | 0.636 | 0.575 | 0.917 | 0.869 | 0.86 | 0.832 | 0.845 | 0.915 | 0.774 | 0.848 | 0.899 | 0.461 | 0.398 | 0.355 | 0.38
3 | NCI-H1792 | 0.735 | 0.516 | 0.474 | 0.428 | 0.233 | 0.508 | 0.332 | 0.382 | 0.293 | 0.26 | 0.412 | 0.496 |  | 0.368 | 0.169 | 0.235 | 0.243 | 0.356
4 | NCI-H1793 | 0.355 | 0.226 | 0.252 | 0.247 | 0.193 | 0.971 | 0.805 | 0.717 | 0.819 | 0.445 | 1 | 0.832 |  | 1.03 | 0.25 | 0.31 | 0.355 | 0.299
5 | NCI-H1915 | 0.447 | 0.476 | 0.428 | 0.355 | 0.243 | 0.256 | 0.229 | 0.232 | 0.26 | 0.168 | 0.259 | 0.22 | 0.269 | 0.272 | 0.99 | 0.902 | 0.955 | 0.991
6 | NCI-H1944 | 0.439 | 0.335 | 0.331 | 0.319 | 0.301 | 0.416 | 0.42 | 0.411 | 0.329 | 0.365 | 0.458 | 0.44 | 0.363 | 0.404 | 0.359 | 0.307 | 0.348 | 0.374
7 | NCI-H1975 | 0.726 | 0.619 | 0.483 | 0.503 | 0.373 | 0.613 | 0.674 | 0.616 | 0.749 | 0.392 | 1.09 | 0.782 | 0.808 | 1.02 | 0.289 | 0.299 | 0.289 | 0.28
8 | NCI-H1993 | 0.541 | 0.578 | 0.53 | 0.594 | 0.577 | 1.18 | 1.19 | 1.05 | 0.933 | 0.773 | 1.06 | 1.01 | 1.1 | 1.08 | 0.885 | 0.783 | 0.695 | 0.848
9 | NCI-H2009 | 0.537 | 0.452 | 0.287 | 0.327 | 0.243 | 0.711 | 0.778 | 0.862 | 0.789 | 0.461 | 0.715 | 0.769 | 0.628 | 0.72 | 0.94 | 0.759 | 0.815 | 0.711
10 | NCI-H2023 | 0.369 | 0.374 | 0.329 | 0.309 | 0.234 | 0.452 | 0.427 | 0.522 | 0.508 | 0.433 | 0.721 | 0.407 | 0.416 | 0.434 | 0.284 | 0.193 | 0.217 | 0.262
11 | NCI-H2085 | 0.913 | 0.754 | 0.803 | 0.667 | 0.332 | 0.805 | 0.756 | 0.895 | 0.865 | 0.703 | 0.866 | 0.775 | 0.792 | 0.745 | 0.553 | 0.419 | 0.455 | 0.44
12 | NCI-H2087 | 0.52 | 0.335 | 0.213 | 0.274 | 0.13 | 0.446 | 0.491 | 0.383 | 0.537 | 0.181 | 0.797 | 0.527 | 0.572 | 0.701 | 1.06 | 0.881 | 0.652 | 0.997
13 | NCI-H2126 | 0.793 | 0.655 | 0.651 | 0.728 | 0.594 | 0.932 | 0.875 | 0.874 | 0.935 | 0.972 | 0.986 | 0.886 | 0.84 | 1.12 | 0.506 | 0.499 | 0.474 | 0.533
14 | NCI-H2170 | 0.836 | 0.676 | 0.717 | 0.749 | 0.578 | 0.56 | 0.598 | 0.607 | 0.638 | 0.551 | 0.722 | 0.662 | 0.614 | 0.543 | 0.305 | 0.279 | 0.316 | 0.297
15 | NCI-H2228 | 0.627 | 0.521 | 0.519 | 0.623 | 0.281 | 0.585 | 0.583 | 0.847 | 0.698 | 0.541 | 0.746 | 0.74 | 0.693 | 0.944 | 0.401 | 0.344 | 0.473 | 0.544
16 | NCI-H2347 | 0.337 | 0.377 | 0.396 | 0.339 | 0.254 | 0.516 | 0.537 | 0.506 | 0.594 | 0.43 | 0.646 | 0.472 | 0.559 | 0.577 | 0.708 | 0.636 | 0.694 | 0.783
17 | NCI-H2405 | 0.482 | 0.37 | 0.393 | 0.353 | 0.345 | 0.661 | 0.792 | 0.572 | 0.646 | 0.555 | 0.992 | 0.865 | 0.841 | 0.914 | 0.5 | 0.443 | 0.422 | 0.537
18 | NCI-H3122 | 0.559 | 0.344 | 0.287 | 0.267 | 0.16 | 0.652 | 0.634 | 0.561 | 0.565 | 0.379 | 0.796 | 0.589 | 0.572 | 0.791 | 0.711 | 0.583 | 0.636 | 0.707
19 | PC-3 [JPC-3] | 0.791 | 0.731 | 0.753 | 0.815 | 0.683 | 1.1 | 1.16 | 1.22 | 1.23 | 1.1 | 1.42 | 1.15 | 1.16 | 1.26 | 0.747 | 0.674 | 0.63 | 0.877
20 | PC-14 | 0.727 | 0.956 | 0.733 | 0.666 | 0.329 | 0.376 | 0.258 | 0.243 | 0.259 | 0.16 | 0.234 | 0.261 | 0.222 | 0.225 | 1.15 | 0.823 | 0.566 | 0.752
21 | RERF-LC-KJ | 0.53 | 0.523 | 0.528 | 0.462 | 0.458 | 0.807 | 0.925 | 1.01 | 1.01 | 0.865 | 1.12 | 0.859 | 0.924 | 0.775 | 0.576 | 0.571 | 0.522 | 0.44
22 | SK-LU-1 |  | 0.315 | 0.276 | 0.33 | 0.208 | 0.376 | 0.37 | 0.44 | 0.379 | 0.315 | 0.613 | 0.431 | 0.407 | 0.562 | 0.661 | 0.58 | 0.502 | 0.789
23 | SK-MES-1 | 0.599 | 0.593 | 0.653 | 0.572 | 0.297 | 0.693 | 0.824 | 0.9 | 0.737 | 0.392 | 0.888 | 0.66 | 0.662 | 0.474 | 0.354 | 0.353 | 0.336 | 0.401
24 | SW 1573 | 0.669 | 0.555 | 0.359 | 0.362 | 0.26 | 0.462 | 0.423 | 0.365 | 0.374 | 0.346 | 0.592 | 0.493 | 0.42 | 0.431 | 0.621 | 0.545 | 0.49 | 0.495
25 | UMC-11 | 0.468 | 0.496 | 0.46 | 0.464 | 0.382 | 0.393 | 0.357 | 0.291 | 0.344 | 0.331 | 0.494 | 0.347 | 0.536 | 0.346 | 0.897 | 0.821 | 0.75 | 0.915
